In one experiment the test system is SUP-T1 cells. The format is cell-based, human. The method, then: The experiments include contacting an SDF-1 mimetic with a cell. For the experiments, SUP-T1 cells (ATCC) were plated on the day of the experiment using 1.2×10^5 cells per well in 96-well black-wall/clear-bottom plates coated with poly-D-lysine (BD Biosciences) and loaded using a fluorescent calcium indicator. The indicator used was from a FLIPR Calcium 3 assay kit, component A, (Molecular Probes) and was loaded in the cell for 1 hr at 37° C. The intracellular calcium mobilization in response to the appropriate analogue was measured at 37° C. by monitoring the fluorescence as a function of time simultaneously in all the wells using a Flexstation Fluorometric Imaging Plate Reader (Molecular Devices).

Experiment [1] addresses T1, CXCR3 receptor (CXCR-3/300-19 cells) (Homo sapiens, UniProt P49682).
T1 construct: expressed in transfected cells; host or cells: 300-19 mouse pre-B lymphocytes (CXCR-3/300-19)
T1 sequence (P49682 1-368): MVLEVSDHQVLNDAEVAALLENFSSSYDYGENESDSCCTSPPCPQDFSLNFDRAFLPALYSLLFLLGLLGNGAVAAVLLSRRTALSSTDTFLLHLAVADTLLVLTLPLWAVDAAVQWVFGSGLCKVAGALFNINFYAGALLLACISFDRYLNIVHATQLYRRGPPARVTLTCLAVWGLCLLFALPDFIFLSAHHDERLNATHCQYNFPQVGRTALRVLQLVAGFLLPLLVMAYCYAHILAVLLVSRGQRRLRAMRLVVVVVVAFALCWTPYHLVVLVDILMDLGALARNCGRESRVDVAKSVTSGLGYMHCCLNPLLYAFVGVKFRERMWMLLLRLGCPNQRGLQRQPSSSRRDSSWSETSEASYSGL
Kind of experiment: [Ca2+]i mobilization by IP-10 analogs, FLIPR Calcium 3 kit, CXCR-3/300-19 cells. The format is cell-based. Conditions: for calcium mobilization activity of the cells: CXCR-3/300-19 cells. As to the method: Binding and Calcium Mobilization: Suspensions of CXCR-3/300-19 cells were used to assess binding and intracellular calcium mobilization induced by IP-10 analogs. These are mouse pre-B lymphocytes transfected with the CXCR3 receptor, (Moser, et al). The cells were washed in RPMI media and resuspended in RPMI media supplemented with 10% FCS, then plated at 1.2×10^5 cells per well of 96-well black wall/clear bottom plates coated with poly-D-lysine (Becton Dickinson) and loaded with 100 uL fluorescent calcium indicator FLIPR Calcium 3 assay kit component A (Molecular Probes) for 1 hr at 37° C. The cells on the plates were then spun at 1000 rpm for 15 minutes at room temperature.
Each of the sequences successfully bound to the cellular receptors. The intracellular calcium mobilization in response to 25 uL (0-100000 nM final concentrations) of the appropriate and various concentrations of analogue was measured at 37° C. by monitoring fluorescence as a function of time in all the wells using the Flexstation Fluorometric Imaging Plate Reader (Molecular Devices). All analogues were run simultaneously with rhIP-10 (R&D Systems) as the standard. Table 7 provides the dosage effect of the binding of each of the IP-10 analogs on the calcium mobilization activity of the cells.
For orientation: Calcium flux is commonly read through the fluorescence of an indicator in the cells.

Experiment [2] concerns high affinity receptors on human immature monocyte-derived dendritic cells (iDCs). Conditions: cited from earlier work.
The test system of experiment [3] is endothelial cell chemotaxis. The following applies: in vitro; cited from earlier work.

Non-standard residues stand in square brackets, D forms with d. No end group written: not given here. Aun = NCCCCCCCCCCC(=O)O

Regarding “KPVSLSYRAPFRFFRGGRLKWIQEYLEKALN-NH2 [SEQ ID NO: 25]”, the EC50 (in general, the concentration at which the effect is half-maximal) with SUP-T1 cells amounted to 132 nM.
For “KPVSLSYRAPFRFFGGGKLKWIQEYLEKALN-NH2 (C-terminus assumed) [SEQ ID NO: 6]”, in the experiment with SUP-T1 cells, the EC50 worked out at 283 nM.
On the same count and under the same terms, as for “KPVSLSYRAPFRFFKGKGLKWIQEYLEKALN-NH2 [SEQ ID NO: 11]”, the figure is 228 nM; as for “KPVSLSYRAPFRFFGRRRLKWIQEYLEKALN-NH2 [SEQ ID NO: 29]”, 1870 nM.
In turn, “KPVSLSYRAPFRFFGGKKLKWIQEYLEKALN-NH2 (C-terminus assumed) [SEQ ID NO: 9]” gave an EC50 with SUP-T1 cells of 225 nM.
As to “KPVSLSYRAPFRFFGRRGLKWIQEYLEKALN-NH2 [SEQ ID NO: 23]”, the EC50 with SUP-T1 cells stood at 202 nM.
Consider “KPVSLSYRAPFRFFRGRRLKWIQEYLEKALN-NH2 [SEQ ID NO: 30]”, for which the EC50 in the experiment on SUP-T1 cells turned out to be 178 nM.
The same measure, in the same setting: as for “KPVSLSYRAPFRFFGKKKLKWIQEYLEKALN-NH2 (C-terminus assumed) [SEQ ID NO: 14]”, the figure is 92 nM.
For “KPVSLSYRAPFRFFRGGGLKWIQEYLEKALN-NH2 (C-terminus assumed) [SEQ ID NO: 18]”, in the experiment with SUP-T1 cells, the EC50 was determined as 219 nM.
“KPVSLSYRAPFRFFRRGGLKWIQEYLEKALN-NH2 (C-terminus assumed) [SEQ ID NO: 22]”: the concentration giving a half-maximal response (EC50) in the experiment with SUP-T1 cells is 171 nM.
On the same count and under the same terms, in the case of “KPVSLSYRAPFRFFGKGGLKWIQEYLEKALN-NH2 (C-terminus assumed) [SEQ ID NO: 4]” it was 312 nM; in that of “KPVSLSYRAPFRFFRRRGLKWIQEYLEKALN-NH2 [SEQ ID NO: 28]”, 597 nM.
Take “acetylated-IP-10-(1-16)-[linker]-IP-10-(66-78) (Ac-VPLSRTVRCTCISISN[Aun]LKAVSKEMSKRSP; cysteine pairing not given here) [SEQ ID NO:1641, IP-10 analog, numbering of U.S. App; 11/590,210]”: the “increase in intracellular calcium mobilization” value in experiment [1] (100 μM (FIG. 1), three independent experiments) is given as about 500%. The calcium mobilization activity of the cells in experiment [1] (dosage 1.2 μM) turned out to be 12.6%; in experiment [1] (dosage 3.7 μM) it was 12.7%; in experiment [1] (dosage 11.1 μM), 14.1%; in experiment [1] (dosage 33.3 μM) it was 20%; in experiment [1] (dosage 100 μM), 52.9%.
The molecule “KPVSLSYRAPFRFFGGGRLKWIQEYLEKALN-NH2 (C-terminus assumed) [SEQ ID NO: 21]” displayed an EC50 in the experiment with SUP-T1 cells of 361 nM.
The molecule “KPVSLSYRAPFRFFKKGGLKWIQEYLEKALN-NH2 (C-terminus assumed) [SEQ ID NO: 7]” displayed an EC50 with SUP-T1 cells of 281 nM.
Molecule “KPVSLSYRAPFRFFKGGKLKWIQEYLEKALN-NH2 (C-terminus assumed) [SEQ ID NO: 10]” gave an EC50 in the experiment on SUP-T1 cells of 233 nM.
As for “KPVSLSYRAPFRFFGGRGLKWIQEYLEKALN-NH2 (C-terminus assumed) [SEQ ID NO: 20]”, the midpoint of the response in the experiment on SUP-T1 cells, the EC50, lay at 307 nM.
Molecule “KPVSLSYRAPFRFFGGRRLKWIQEYLEKALN-NH2 [SEQ ID NO: 24]” displayed an EC50 in the experiment on SUP-T1 cells of 173 nM.
Take “KPVSLSYRAPFRFFKKKGLKWIQEYLEKALN-NH2 (C-terminus assumed) [SEQ ID NO: 13]”: the EC50 in the experiment with SUP-T1 cells amounted to 137 nM.
For the molecule “KPVSLSYRAPFRFFGKGKLKWIQEYLEKALN-NH2 (C-terminus assumed) [SEQ ID NO: 12]”, the response in the experiment on SUP-T1 cells was half-maximal at 307 nM (EC50).
“KPVSLSYRAPFRFFKKGKLKWIQEYLEKALN-NH2 (C-terminus assumed) [SEQ ID NO: 16]” had an EC50 in the experiment with SUP-T1 cells of 140 nM.
Molecule “KPVSLSYRAPFRFFRRGRLKWIQEYLEKALN-NH2 [SEQ ID NO: 31]” returned a concentration for a half-maximal effect (EC50) in the experiment with SUP-T1 cells of 709 nM.
Take “KPVSLSYRAPFRFFRGRGLKWIQEYLEKALN-NH2 [SEQ ID NO: 26]”: in the experiment on SUP-T1 cells, the EC50 was determined as 248 nM.
“KPVSLSYRAPFRFFGKKGLKWIQEYLEKALN-NH2 (C-terminus assumed) [SEQ ID NO: 8]” came in with an EC50 in the experiment with SUP-T1 cells of 304 nM.
In the experiment on SUP-T1 cells, “KPVSLSYRAPFRFFRRRRLKWIQEYLEKALN-NH2 [SEQ ID NO: 32]” yielded an EC50 of 1120 nM.
As for “KPVSLSYRAPFRFFKGKKLKWIQEYLEKALN-NH2 (C-terminus assumed) [SEQ ID NO: 15]”, the EC50 in the experiment on SUP-T1 cells worked out at 157 nM.
Take “KPVSLSYRAPFRFFGGKGLKWIQEYLEKALN-NH2 [SEQ ID NO: 5]”: in the experiment on SUP-T1 cells, the EC50 was determined as 211 nM.
Turning to “KPVSLSYRAPFRFFGRGGLKWIQEYLEKALN-NH2 (C-terminus assumed) [SEQ ID NO: 19]”, a half-maximal effect in the experiment on SUP-T1 cells (EC50) was put at 253 nM.
Consider “KPVSLSYRAPFRFFGRGRLKWIQEYLEKALN-NH2 [SEQ ID NO: 27]”, for which, in the experiment with SUP-T1 cells, the response was half-maximal at 4320 nM (EC50).
The molecule “KPVSLSYRAPFRFFKKKKLKWIQEYLEKALN-NH2 (C-terminus assumed) [SEQ ID NO: 17]” came in with an EC50 with SUP-T1 cells of 316 nM.

B1: rBRAK: recombinant BRAK (CXCL14 chemokine) (protein, UniProt O95715 35-111, looked up)
C-X-C motif chemokine 14: SKCKCSRKGPKIRYSDVKKLEMKPKYPHCEEKMVIITTKSVSRYRGQEHCLHPKLQSTKRFIKWYNAWNEKRRVYEE
B1: in experiment [2], the dissociation constant Kd (in general, the equilibrium constant for the complex coming apart) was 2 nM. Moreover, the “concentration blocking endothelial cell chemotaxis (as low as)” value in experiment [3] is 1 nmol/L.
